In patent US8674118B2, “Compounds and methods for the treatment or prevention of flavivirus infections” (priority 2005, dated 2014) one finds IC50 data, which are given here for 25 compounds.

The structures appear in SMILES notation. Read-outs that look alike come from different tables or passages of the source.

In the assay the test system is HCV RNA replication (replicon cell lines Huh-7, 5.2 and ET). Description: Cell-Based Luciferase Reporter HCV RNA Replication Assay. The note with it: Hepatitis C virus, Huh-7, 96 h.
Where [1] appears, read: Huh-7, 5.2 or ET replicon cells, luciferase counts after 4 days incubation, read-out: IC50.

By IC50 is commonly meant the concentration needed to halve the response being measured. In the case of `CC1CCC(C(=O)N(c2cc(C3=CCCCC3)sc2C(=O)O)C2CCC3CCCCC3C2)CC1` (mixture of isomers) [Compound 65, 5-cyclohex-1-enyl-3-[(cis/trans-decahydro-naphthalen-2-yl)-(4-trans-methyl-cyclohexanecarbonyl)-amino]-thiophene-2-carboxylic acid], the IC50 under setting [1] is under 5 µM.

As to `CC1CCC(C(=O)N(c2cc(C3CCC(O)CC3)sc2C(=O)O)C2CCC(O)CC2)CC1` (mixture of isomers) [Compound 85, 5-(4-cis/trans-hydroxy-cyclohexyl)-3-[(4-trans-hydroxy-cyclohexyl)-(4-trans-methyl-cyclohexanecarbonyl)-amino]-thiophene-2-carboxylic acid], under setting [1], the IC50 is 5 to 25 µM.

`COCC1CCC(N(C(=O)C2CCC(C)CC2)c2cc(C3=CCCCC3)sc2C(=O)O)CC1` (mixture of isomers) [Compound 126, 5-cyclohex-1-enyl-3-[(4-cis/trans-methoxymethyl-cyclohexyl)-(4-trans-methyl-cyclohexanecarbonyl)-amino]-thiophene-2-carboxylic acid]: under setting [1], the IC50 was under 5 µM.

Take `CC1CC=C(c2cc(N(C(=O)[C@H]3CC[C@H](C)CC3)[C@H]3CC[C@H](O)CC3)c(C(=O)O)s2)CC1` (relative stereo) [Compound 4, 3-[(trans-4-Hydroxy-cyclohexyl)-(trans-4-methyl-cyclohexanecarbonyl)-amino]-5-(4-methyl-cyclohex-1-enyl)-thiophene-2-carboxylic acid]: the concentration for half-maximal inhibition (IC50) under setting [1] is under 5 µM.

On to `CC(C)(C)C1CC=C(c2cc(N(C(=O)[C@H]3CC[C@H](C)CC3)[C@H]3CC[C@H](O)CC3)c(C(=O)O)s2)CC1` (relative stereo) [Compound 13, 5-(4-Tert-butyl-cyclohex-1-enyl)-3-[(trans-4-hydroxy-cyclohexyl)-(trans-4-methyl-cyclohexanecarbonyl)-amino]-thiophene-2-carboxylic acid], for which the IC50 under setting [1] is under 5 µM.

Turning to `C[C@H]1CC[C@H](C(=O)N(c2cc(C3=CCCCC3)sc2C(=O)O)C2CCC(OC(=O)N3CCOCC3)CC2)CC1` (relative stereo) [Compound 18, Morpholine-4-carboxylic acid 4-[(2-carboxy-5-cyclohex-1-enyl-thiophen-3-yl)-(trans-4-methyl-cyclohexanecarbonyl)-amino]-cyclohexyl ester], the IC50 under setting [1] was under 5 µM.

For the compound `COC(=O)C(NC(=O)O[C@H]1CC[C@H](N(c2cc(C3=CCCCC3)sc2C(=O)O)C(=O)[C@H]2CC[C@H](C)CC2)CC1)C(C)C` (relative stereo) [Compound 19, 5-Cyclohex-1-enyl-3-[[trans-4-(1-methoxycarbonyl-2-methyl-propylcarbamoyloxy)-cyclohexyl]-(trans-4-methyl-cyclohexanecarbonyl)amino]-thiophene-2-carboxylic acid], under setting [1], the IC50 is under 5 µM.

With `CN1C(=O)N(C)C2(CCC(N(c3cc(C4=CCCCC4)sc3C(=O)O)C(=O)[C@H]3CC[C@H](C)CC3)CC2)C1=O` (relative stereo) [Compound 32, 5-cyclohex-1-enyl-3-[(1,3-dimethyl-2,4-dioxo-1,3-diaza-spiro[4.5]dec-8-yl)-(trans-4-methyl-cyclohexanecarbonyl)-amino]-thiophene-2-carboxylic acid], the IC50 under setting [1] was under 5 µM.

As for `C[C@H]1CC[C@H](C(=O)N(c2cc(C3=CCC(Oc4ccccc4)CC3)sc2C(=O)O)[C@H]2CC[C@H](O)CC2)CC1` (relative stereo) [Compound 33, 3-[(trans-4-hydroxy-cyclohexyl)-(trans-4-methyl-cyclohexanecarbonyl)-amino]-5-(4-phenoxy-cyclohex-1-enyl)-thiophene-2-carboxylic acid], the IC50 under setting [1] is under 5 µM.

On to `CC1OCC(N(c2cc(C3=CCCCC3)sc2C(=O)O)C(=O)[C@H]2CC[C@H](C)CC2)CO1` (relative stereo) [Compound 36, 5-cyclohex-1-enyl-3-[(trans-4-methyl-cyclohexanecarbonyl)-(2-methyl-[1,3]dioxan-5-yl)-amino]-thiophene-2-carboxylic acid], for which, under setting [1], the IC50 was under 5 µM.

With `CC1CCCC(N(c2cc(C3=CCCCC3)sc2C(=O)O)C(=O)[C@H]2CC[C@H](C)CC2)C1` (relative stereo) [Compound 39, 5-cyclohex-1-enyl-3-[(trans-4-methyl-cyclohexanecarbonyl)-(3-methyl-cyclohexyl)-amino]-thiophene-2-carboxylic acid], the IC50 under setting [1] was under 5 µM.

With `C[C@H]1CC[C@H](C(=O)N(c2cc(C3=CCCCC3)sc2C(=O)O)C2CC3CCC(C3)C2)CC1` (relative stereo) [Compound 40, 3-[bicyclo[3.2.1]oct-3-yl-(trans-4-methylcyclohexanecarbonyl)-amino]-5-cyclohex-1-enyl-thiophene-2-carboxylic acid], the IC50 under setting [1] was under 5 µM.

Regarding `CC1CC=C(c2cc(N(C(=O)[C@H]3CC[C@H](C)CC3)C(C)C)c(C(=O)O)s2)CC1` (relative stereo) [Compound 43, 3-[isopropyl-(trans-4-methyl-cyclohexanecarbonyl)-amino]-5-(4-methyl-cyclohex-1-enyl)-thiophene-2-carboxylic acid], the half-inhibitory concentration (IC50) under setting [1] is under 5 µM.

In turn, `CCON=C1CCC(N(c2cc(C3=CCCCC3)sc2C(=O)O)C(=O)[C@H]2CC[C@H](C)CC2)CC1` (relative stereo) [Compound 54, 5-cyclohex-1-enyl-3-[(4-ethoxyimino-cyclohexyl)-(trans-4-methyl-cyclohexanecarbonyl)-amino]-thiophene-2-carboxylic acid] displayed an IC50 of under 5 µM.

With `C[C@H]1CC[C@H](C(=O)N(c2cc(C3=CC(O)CCC3)sc2C(=O)O)[C@H]2CC[C@H](OC3CCCCO3)CC2)CC1` (relative stereo) [Compound 55, 5-(3-hydroxy-cyclohex-1-enyl)-3-{(trans-4-methyl-cyclohexanecarbonyl)-[trans-4-(tetrahydro-pyran-2-yloxy)-cyclohexyl]amino}-thiophene-2-carboxylic acid], the IC50 under setting [1] is under 5 µM.

`C[C@H]1CC[C@H](C(=O)N(c2cc(C3=CCCCC3)sc2C(=O)O)C2CC[S+]([O-])CC2)CC1` (relative stereo) [Compound 69, 5-cyclohex-1-enyl-3-[(trans-4-methyl-cyclohexanecarbonyl)-(1-oxo-hexahydro-1lambda*4*-thiopyran-4-yl)-amino]-thiophene-2-carboxylic acid]: under setting [1], the IC50 was under 5 µM.

As to `CN1C(=O)N(C)C2(CCC(N(c3cc(C4=CCC(C)(C)CC4)sc3C(=O)O)C(=O)[C@H]3CC[C@H](C)CC3)CC2)C1=O` (relative stereo) [Compound 75, 5-(4,4-dimethyl-cyclohex-1-enyl)-3-[(1,3-dimethyl-2,4-dioxo-1,3-diaza-spiro[4.5]dec-8-yl)-(trans-4-methyl-cyclohexanecarbonyl)-amino]-thiophene-2-carboxylic acid], the IC50 under setting [1] was under 5 µM.

Regarding `CN1C(=O)N(C)C2(CCC(N(c3cc(C4CCC(C)(C)CC4)sc3C(=O)O)C(=O)[C@H]3CC[C@H](C)CC3)CC2)C1=O` (relative stereo) [Compound 79, 5-(4,4-dimethyl-cyclohexyl)-3-[(1,3-dimethyl-2,4-dioxo-1,3-diaza-spiro[4.5]dec-8-yl)-(trans-4-methyl-cyclohexanecarbonyl)-amino]-thiophene-2-carboxylic acid], under setting [1], the IC50 is under 5 µM.

`C[C@H]1CC[C@H](C(=O)N(c2cc(C3=CC(O)CCC3)sc2C(=O)O)[C@H]2CC[C@H](O)CC2)CC1` (relative stereo) [Compound 82, 5-(3-hydroxy-cyclohex-1-enyl)-3-[(trans-4-hydroxy-cyclohexyl)-(trans-4-methyl-cyclohexanecarbonyl)-amino]-thiophene-2-carboxylic acid]: the IC50 under setting [1] fell in the range of 5 to 25 µM.

Consider `CO[C@H]1CC[C@H](N(c2cc(C3CCC(C(F)(F)F)CC3)sc2C(=O)O)C(=O)[C@H]2CC[C@H](C)CC2)CC1` (relative stereo) [Compound 108, 3-[(trans-4-methoxy-cyclohexyl)-(trans-4-methyl-cyclohexanecarbonyl)-amino]-5-(4-trifluoromethyl-cyclohexyl)-thiophene-2-carboxylic acid], for which the IC50 under setting [1] was under 5 µM.

With `CO[C@H]1CC[C@H](N(c2cc(C3=C(F)CCCC3F)sc2C(=O)O)C(=O)[C@H]2CC[C@H](C)CC2)CC1` (relative stereo) [Compound 119, 5-(2,6-difluoro-cyclohex-1-enyl)-3-[(trans-4-methoxy-cyclohexyl)-(trans-4-methyl-cyclohexanecarbonyl)-amino]-thiophene-2-carboxylic acid], the IC50 under setting [1] was under 5 µM.

In the case of `CO[C@H]1CC[C@H](N(c2cc(C3=C(F)C(F)CCC3)sc2C(=O)O)C(=O)[C@H]2CC[C@H](C)CC2)CC1` (relative stereo) [Compound 120, 5-(2,3-difluoro-cyclohex-1-enyl)-3-[(trans-4-methoxy-cyclohexyl)-(trans-4-methyl-cyclohexanecarbonyl)-amino]-thiophene-2-carboxylic acid], the IC50 under setting [1] was under 5 µM.

With `CO[C@H]1CC[C@H](N(c2cc(C3=CCC(C(F)(F)F)CC3)sc2C(=O)O)C(=O)[C@H]2CC[C@H](C)CC2)CC1` (relative stereo) [Compound 124, 3-[(trans-4-methoxy-cyclohexyl)-(trans-4-methyl-cyclohexanecarbonyl)-amino]-5-(4-trifluoromethyl-cyclohex-1-enyl)-thiophene-2-carboxylic acid], under setting [1], the half-inhibitory concentration (IC50) is under 5 µM.

Take `CCC(=O)N(C)C1CCC(N(c2cc(C3=CCCCC3)sc2C(=O)O)C(=O)[C@H]2CC[C@H](C)CC2)CC1` (relative stereo) [Compound 140, 5-cyclohex-1-enyl-3-{(trans-4-methyl-cyclohexanecarbonyl)-[4-(methyl-propionyl-amino)-cyclohexyl]-amino}-thiophene-2-carboxylic acid]: the IC50 under setting [1] is under 5 µM.

With `C[C@H]1CC[C@H](C(=O)N(c2cc(C3=CCCCC3)sc2C(=O)O)[C@H]2CC[C@H](O)CC2)CC1` [Compound 1, 5-Cyclohex-1-enyl-3-[(trans-4-hydroxy-cyclohexyl)-(trans-4-methyl-cyclohexanecarbonyl)-amino]-thiophene-2-carboxylic acid], the IC50 under setting [1] was under 5 µM.
